Measured values as given in patent US20200289144A1, “DEVICE, METHOD AND FORMULATION FOR CHEMICALLY ASSISTED DISSECTION” (priority 2016, published 2020).

What was measured:
human MRC-5 fibroblasts [1] = assay: Quantitative evaluation of cytotoxicity, viability assay using MU reagent; assay type: cell-based; conditions: for cytotoxicity (percentage of viability below 70% compared to culture medium): result in words
Protocol: Two experiments were performed. […] All samples were assayed in triplicate.
The cytotoxicity is defined by a viability of a test substance below 70% in compartion to culture medium.

human MRC-5 fibroblasts [2] = assay: Qualitative evaluation of cytotoxicity by microscopic examination; conditions: mean ± SD of scores
Protocol: In vitro cytotoxicity of Mesna in human MRC-5 fibroblasts was evaluated. Two experiments were performed. The first one was performed with two doses of Mesna (5% and 10%) and NaCl (7.06 and 3.53%) and the second one was performed with three doses of Mesna (5, 10 and 20%) and the three corresponding doses of NaCl (7.06, 3.53 and 1.76%). All samples were assayed in triplicate. Evaluation of cytotoxicity was evaluated after the following times: T15 min, T30 min, T1h, T2h, T4h, T8h and T24h.
Cells were thawed according to the standard operating procedure No. TEC-005 and subcultured according to the standard operating procedure No. TEC-001. The cell line was cultured in 75 cm^2-flasks in appropriated culture medium.
A score was assigned based on observations.

[3] = Mesna purity before and after sterilization using X-rays and gamma irradiation; assay type: physicochemical
Source text: Mesna purity has been evaluated prior and after sterilization using X-rays and gamma irradiation.

Structure (SMILES): O=S(=O)([O-])CCS.[Na+] [Mesna 20%, Sodium 2-mercaptoethanesulfonate]
- percentage of cell viability compared to culture medium (100% of viability) (human MRC-5 fibroblasts [1]; 15 min (0.25 h) exposure): −10.2%
- percentage of cell viability compared to culture medium (100% of viability) (human MRC-5 fibroblasts [1]; 30 min (0.5 h) exposure): −1.2%
- percentage of cell viability compared to culture medium (100% of viability) (human MRC-5 fibroblasts [1]; 1 h exposure): 47.2%
- percentage of cell viability compared to culture medium (100% of viability) (human MRC-5 fibroblasts [1]; 2 h exposure): 11.8%
- percentage of cell viability compared to culture medium (100% of viability) (human MRC-5 fibroblasts [1]; 4 h exposure): 4.6%
- percentage of cell viability compared to culture medium (100% of viability) (human MRC-5 fibroblasts [1]; 8 h exposure): 12.1%
- percentage of cell viability compared to culture medium (100% of viability) (human MRC-5 fibroblasts [1]; 24 h exposure): 18.3%
- cytotoxicity score (microscopic examination) (human MRC-5 fibroblasts [2]; 15 min exposure): 0.0
- cytotoxicity score (microscopic examination) (human MRC-5 fibroblasts [2]; 30 min exposure): 1.0
- cytotoxicity score (microscopic examination) (human MRC-5 fibroblasts [2]; 1 h exposure): 2.0
- cytotoxicity score (microscopic examination) (human MRC-5 fibroblasts [2]; 2 h exposure): 3.0
- cytotoxicity score (microscopic examination) (human MRC-5 fibroblasts [2]; 4 h exposure): 3.0
- cytotoxicity score (microscopic examination) (human MRC-5 fibroblasts [2]; 8 h exposure): 3.0
- cytotoxicity score (microscopic examination) (human MRC-5 fibroblasts [2]; 24 h exposure): 4.0

Structure (SMILES): O=S(=O)([O-])CCS.[Na+] [Mesna 10%, Sodium 2-mercaptoethanesulfonate]
- percentage of cell viability compared to culture medium (100% of viability) (human MRC-5 fibroblasts [1]; 15 min (0.25 h) exposure): 62.3%
- percentage of cell viability compared to culture medium (100% of viability) (human MRC-5 fibroblasts [1]; 30 min (0.5 h) exposure): 54.8%
- percentage of cell viability compared to culture medium (100% of viability) (human MRC-5 fibroblasts [1]; 1 h exposure): 20.6%
- percentage of cell viability compared to culture medium (100% of viability) (human MRC-5 fibroblasts [1]; 2 h exposure): 4.1%
- percentage of cell viability compared to culture medium (100% of viability) (human MRC-5 fibroblasts [1]; 4 h exposure): 3.2%
- percentage of cell viability compared to culture medium (100% of viability) (human MRC-5 fibroblasts [1]; 8 h exposure): 3.3%
- percentage of cell viability compared to culture medium (100% of viability) (human MRC-5 fibroblasts [1]; 24 h exposure): 1.1%
- cytotoxicity score (microscopic examination) (human MRC-5 fibroblasts [2]; 15 min exposure): 0.0 ± 0.0
- cytotoxicity score (microscopic examination) (human MRC-5 fibroblasts [2]; 30 min exposure): 0.0 ± 0.0
- cytotoxicity score (microscopic examination) (human MRC-5 fibroblasts [2]; 1 h exposure): 1.0 ± 0.0
- cytotoxicity score (microscopic examination) (human MRC-5 fibroblasts [2]; 2 h exposure): 3.0 ± 0.0
- cytotoxicity score (microscopic examination) (human MRC-5 fibroblasts [2]; 4 h exposure): 3.0 ± 0.0
- cytotoxicity score (microscopic examination) (human MRC-5 fibroblasts [2]; 8 h exposure): 3.0 ± 0.0
- cytotoxicity score (microscopic examination) (human MRC-5 fibroblasts [2]; 24 h exposure): 4 ± 0

Structure (SMILES): Oc1ccccc1 [Phenol 0.5%, Phenol]
- percentage of cell viability compared to culture medium (100% of viability) (human MRC-5 fibroblasts [1]; 15 min (0.25 h) exposure): 10.9%
- percentage of cell viability compared to culture medium (100% of viability) (human MRC-5 fibroblasts [1]; 30 min (0.5 h) exposure): 13.2%
- percentage of cell viability compared to culture medium (100% of viability) (human MRC-5 fibroblasts [1]; 1 h exposure): 11.3%
- percentage of cell viability compared to culture medium (100% of viability) (human MRC-5 fibroblasts [1]; 2 h exposure): 13.6%
- percentage of cell viability compared to culture medium (100% of viability) (human MRC-5 fibroblasts [1]; 4 h exposure): 10.4%
- percentage of cell viability compared to culture medium (100% of viability) (human MRC-5 fibroblasts [1]; 8 h exposure): 14.2%
- percentage of cell viability compared to culture medium (100% of viability) (human MRC-5 fibroblasts [1]; 24 h exposure): 8.5%
- cytotoxicity (percentage of viability below 70% compared to culture medium) (human MRC-5 fibroblasts [1]): observed at all time points
- cytotoxicity score (microscopic examination) (human MRC-5 fibroblasts [2]; 15 min exposure): 3.0 ± 0.0
- cytotoxicity score (microscopic examination) (human MRC-5 fibroblasts [2]; 30 min exposure): 3.0 ± 0.0
- cytotoxicity score (microscopic examination) (human MRC-5 fibroblasts [2]; 1 h exposure): 3.0 ± 0.0
- cytotoxicity score (microscopic examination) (human MRC-5 fibroblasts [2]; 2 h exposure): 3.0 ± 0.0
- cytotoxicity score (microscopic examination) (human MRC-5 fibroblasts [2]; 4 h exposure): 3.0 ± 0.0
- cytotoxicity score (microscopic examination) (human MRC-5 fibroblasts [2]; 8 h exposure): 3.0 ± 0.0
- cytotoxicity score (microscopic examination) (human MRC-5 fibroblasts [2]; 24 h exposure): 4.0 ± 0.0

Structure (SMILES): O=S(=O)([O-])CCS.[Na+] [Mesna 5%, Sodium 2-mercaptoethanesulfonate]
- percentage of cell viability compared to culture medium (100% of viability) (human MRC-5 fibroblasts [1]; 15 min (0.25 h) exposure): 66%
- percentage of cell viability compared to culture medium (100% of viability) (human MRC-5 fibroblasts [1]; 30 min (0.5 h) exposure): 47.6%
- percentage of cell viability compared to culture medium (100% of viability) (human MRC-5 fibroblasts [1]; 1 h exposure): 50.4%
- percentage of cell viability compared to culture medium (100% of viability) (human MRC-5 fibroblasts [1]; 2 h exposure): 39.7%
- percentage of cell viability compared to culture medium (100% of viability) (human MRC-5 fibroblasts [1]; 4 h exposure): 12%
- percentage of cell viability compared to culture medium (100% of viability) (human MRC-5 fibroblasts [1]; 8 h exposure): 3.4%
- percentage of cell viability compared to culture medium (100% of viability) (human MRC-5 fibroblasts [1]; 24 h exposure): 1.4%
- cytotoxicity score (microscopic examination) (human MRC-5 fibroblasts [2]; 15 min exposure): 0.0 ± 0.0
- cytotoxicity score (microscopic examination) (human MRC-5 fibroblasts [2]; 30 min exposure): 1.5 ± 0.7
- cytotoxicity score (microscopic examination) (human MRC-5 fibroblasts [2]; 1 h exposure): 1.5 ± 0.7
- cytotoxicity score (microscopic examination) (human MRC-5 fibroblasts [2]; 2 h exposure): 3.0 ± 0.0
- cytotoxicity score (microscopic examination) (human MRC-5 fibroblasts [2]; 4 h exposure): 3.0 ± 0.0
- cytotoxicity score (microscopic examination) (human MRC-5 fibroblasts [2]; 8 h exposure): 3.0 ± 0.0
- cytotoxicity score (microscopic examination) (human MRC-5 fibroblasts [2]; 24 h exposure): 4 ± 0

Structure (SMILES): [Cl-].[Na+] [NaCl 7.06%, NaCl]
- percentage of cell viability compared to culture medium (100% of viability) (human MRC-5 fibroblasts [1]; 15 min (0.25 h) exposure): 45.2%
- percentage of cell viability compared to culture medium (100% of viability) (human MRC-5 fibroblasts [1]; 30 min (0.5 h) exposure): 25.3%
- percentage of cell viability compared to culture medium (100% of viability) (human MRC-5 fibroblasts [1]; 1 h exposure): 12.7%
- percentage of cell viability compared to culture medium (100% of viability) (human MRC-5 fibroblasts [1]; 2 h exposure): 12.3%
- percentage of cell viability compared to culture medium (100% of viability) (human MRC-5 fibroblasts [1]; 4 h exposure): 10.8%
- percentage of cell viability compared to culture medium (100% of viability) (human MRC-5 fibroblasts [1]; 8 h exposure): 14.6%
- percentage of cell viability compared to culture medium (100% of viability) (human MRC-5 fibroblasts [1]; 24 h exposure): 7.3%
- cytotoxicity score (microscopic examination) (human MRC-5 fibroblasts [2]; 15 min exposure): 0.0 ± 0.0
- cytotoxicity score (microscopic examination) (human MRC-5 fibroblasts [2]; 30 min exposure): 0.5 ± 0.7
- cytotoxicity score (microscopic examination) (human MRC-5 fibroblasts [2]; 1 h exposure): 2.5 ± 0.7
- cytotoxicity score (microscopic examination) (human MRC-5 fibroblasts [2]; 2 h exposure): 3.0 ± 0.0
- cytotoxicity score (microscopic examination) (human MRC-5 fibroblasts [2]; 4 h exposure): 3.0 ± 0.0
- cytotoxicity score (microscopic examination) (human MRC-5 fibroblasts [2]; 8 h exposure): 3.0 ± 0.0
- cytotoxicity score (microscopic examination) (human MRC-5 fibroblasts [2]; 24 h exposure): 4 ± 0

Structure (SMILES): O=S(=O)([O-])CCS.[Na+] [Mesna powder, Sodium 2-mercaptoethanesulfonate]
- Mesna purity ([3]; After X-ray irradiation): 89.0
- Mesna purity ([3]; After gamma irradiation): 88.9
- Mesna purity ([3]; Prior irradiation): 89.6

Structure (SMILES): O=S(=O)([O-])CCS.[Na+] [Pure lyophilized Mesna, Sodium 2-mercaptoethanesulfonate]
- Mesna purity ([3]; After X-ray irradiation): 89.3
- Mesna purity ([3]; After gamma irradiation): 89.1
- Mesna purity ([3]; Prior irradiation): 89.4

Structure (SMILES): [Cl-].[Na+] [NaCl 3.53%, NaCl]
- percentage of cell viability compared to culture medium (100% of viability) (human MRC-5 fibroblasts [1]; 15 min (0.25 h) exposure): 82.7%
- percentage of cell viability compared to culture medium (100% of viability) (human MRC-5 fibroblasts [1]; 30 min (0.5 h) exposure): 55.4%
- percentage of cell viability compared to culture medium (100% of viability) (human MRC-5 fibroblasts [1]; 1 h exposure): 16.3%
- percentage of cell viability compared to culture medium (100% of viability) (human MRC-5 fibroblasts [1]; 2 h exposure): 12.7%
- percentage of cell viability compared to culture medium (100% of viability) (human MRC-5 fibroblasts [1]; 4 h exposure): 10.5%
- percentage of cell viability compared to culture medium (100% of viability) (human MRC-5 fibroblasts [1]; 8 h exposure): 14.4%
- percentage of cell viability compared to culture medium (100% of viability) (human MRC-5 fibroblasts [1]; 24 h exposure): 7.2%
- cytotoxicity score (microscopic examination) (human MRC-5 fibroblasts [2]; 15 min exposure): 0.0 ± 0.0
- cytotoxicity score (microscopic examination) (human MRC-5 fibroblasts [2]; 30 min exposure): 0.0 ± 0.0
- cytotoxicity score (microscopic examination) (human MRC-5 fibroblasts [2]; 1 h exposure): 2 ± 1.4
- cytotoxicity score (microscopic examination) (human MRC-5 fibroblasts [2]; 2 h exposure): 3.0 ± 0.0
- cytotoxicity score (microscopic examination) (human MRC-5 fibroblasts [2]; 4 h exposure): 3.0 ± 0.0
- cytotoxicity score (microscopic examination) (human MRC-5 fibroblasts [2]; 8 h exposure): 3.0 ± 0.0
- cytotoxicity score (microscopic examination) (human MRC-5 fibroblasts [2]; 24 h exposure): 4 ± 0

Structure (SMILES): [Cl-].[Na+] [NaCl 1.76%, NaCl]
- percentage of cell viability compared to culture medium (100% of viability) (human MRC-5 fibroblasts [1]; 15 min (0.25 h) exposure): 88.8%
- percentage of cell viability compared to culture medium (100% of viability) (human MRC-5 fibroblasts [1]; 30 min (0.5 h) exposure): 102.6%
- percentage of cell viability compared to culture medium (100% of viability) (human MRC-5 fibroblasts [1]; 1 h exposure): 95%
- percentage of cell viability compared to culture medium (100% of viability) (human MRC-5 fibroblasts [1]; 2 h exposure): 75.5%
- percentage of cell viability compared to culture medium (100% of viability) (human MRC-5 fibroblasts [1]; 4 h exposure): 44%
- percentage of cell viability compared to culture medium (100% of viability) (human MRC-5 fibroblasts [1]; 8 h exposure): 23.1%
- percentage of cell viability compared to culture medium (100% of viability) (human MRC-5 fibroblasts [1]; 24 h exposure): 8%
- cytotoxicity (percentage of viability below 70% compared to culture medium) (human MRC-5 fibroblasts [1]): not cytotoxic after 2 hours
- cytotoxicity score (microscopic examination) (human MRC-5 fibroblasts [2]; 15 min exposure): 0.0
- cytotoxicity score (microscopic examination) (human MRC-5 fibroblasts [2]; 30 min exposure): 0.0
- cytotoxicity score (microscopic examination) (human MRC-5 fibroblasts [2]; 1 h exposure): 1.0
- cytotoxicity score (microscopic examination) (human MRC-5 fibroblasts [2]; 2 h exposure): 2.0
- cytotoxicity score (microscopic examination) (human MRC-5 fibroblasts [2]; 4 h exposure): 3.0
- cytotoxicity score (microscopic examination) (human MRC-5 fibroblasts [2]; 8 h exposure): 3.0
- cytotoxicity score (microscopic examination) (human MRC-5 fibroblasts [2]; 24 h exposure): 4.0
